We go through 1 molecule from publication PMC8703450, “New Heterocyclic Combretastatin A-4 Analogs: Synthesis and Biological Activity of Styryl-2(3H)-benzothiazolones” (Pharmaceuticals, 2021).

Structures are written as SMILES.

The assay has as its system EA.hy926 cells. In words: Cell cycle analysis (propidium iodide, flow cytometry). It counts as cell-based, human. Particulars: 300 nM 26Z or 10 nM CA-4. Here is the method: A total of 5 × 10^5 cells was treated with 26Z and CA-4 for time-response assays. Cells were collected by scraping, pelleted, washed with cold PBS (1×), and fixed overnight at 4 °C with 1 mL of ice-cold methanol–acetone (1:1), added dropwise to the pellet while vortexing. Pellets were resuspended and washed in 500 μL of PBS (1×), then permeabilized with a Triton X-100 (0.05–0.1%)/DNA extraction buffer (0.2 M Na2HPO4, 0.04 M citric acid, pH 7.8) in a 1:1 ratio for 15 min. After that, pelleted cells were treated with RNAse A (20 μg/mL) and labeled with 10 μg/mL of propidium iodide (Sigma-Aldrich) by incubation at 37 °C for at least 30 min, protected from light. DNA content was measured using a FACS Calibur flow cytometer ([…], NJ, USA), and cell cycle analysis was performed with FlowJo software (version 8.7). At least 10,000 events were recorded for each sample measured in duplicate.
(A flow cytometer gives signals particle by particle.)

Consider `COc1cc(/C=C\c2ccc3c(c2)sc(=O)n3C)cc(OC)c1OC` [Compound 26Z, (Z)-3-methyl-6-(3,4,5-trimethoxystyryl)-2(3H)-benzothiazolone], for which the “cells in G2/M” value reads like this: (EA.hy926, 4 h) ~ 35%; (EA.hy926, 24 h) ~ 78%.
